# Laboratory results: patent US20160051514A1, “METHODS FOR TREATMENT OF CARDIOMYOPATHY” (THE BRIGHAM AND WOMEN'S HOSPITAL, INC., priority 2013, published 2016)
# “Also recorded” adds a separate entry of the source.
# What was measured:
# [1] = test system: zebrafish ventricular myocytes expressing 2057del2 plakoglobin; test: INa and IK1 current densities by whole-cell voltage-clamp in zebrafish ventricular myocytes; format: cell-based, zebrafish (Danio rerio); conditions: for Effect on reduced INa and IK1 current densities (summary statements): myocytes expressing 2057del2 plakoglobin, after exposure
# Source text: (§1) Zebrafish ventricular myocyte isolation and culture: Zebrafish (Danio rerio) were bred and maintained at 28′C with 14 hr exposure to light and 10 hr to dark (day/night cycle) according to IACUC-approved protocols. Hearts were extracted from anesthetized fish at 21-56 days post-fertilization(dpf) using micro-dissecting tweezers (Roboz Surgical Instruments), washed vigorously in culture medium (M199, primocin, HEPES, L-glutamine, 10% fetal bovine serum) and placed in fresh medium. Ventricles were separated at the atrio-ventricular junction, pooled in a tube containing enzyme solution (HBSS without calcium/magnesium, Trypsin, PCN/Streptomycin, HEPES) at 37° C. and agitated in a thermomixer at 1000-1200 RPM. Dissociated cells were collected every 10 min from supernatants and transferred to tubes containing culture medium and 10% fetal bovine srum to halt trypsinization. Cells were then pelleted by centrifugation, resuspended in fresh culture medium, and seeded on sterile cover slips coated with laminin (20 μg/ml)^11 at 28° C. in a 5% CO2 incubator. After 36 hr, culture medium was changed and unattached cells were removed.
# INa and INa activation and inactivation were measured by whole-cell voltage-clamp according to standard protocols.^14,15 Cells were held at a membrane potential of −80 mV after which pulses between -120 and +50 mV were applied in 5 mV steps each with a duration of 250 ms. Inactivation was measured from membrane potentials between −120 mV and +50 mV at maximal activation.^14,15 In view of the small cell size (cell capacitance of 6.7±2.6pF; n=47) it was not necessary to reduce extracellular [Nal. Access resistance of the patch electrodes was <7 MΩ Measurements showing incomplete control of membrane potential were eliminated from analysis.^14,15
# The inward rectifier current IK1 was measured using the protocol described by Dobrev.^16,17 Ramp clamps of 1400 ms duration were applied between −120 and +20 mV. After each clamp, external solution containing Ba^2+(1 mM) was applied via a large pore pipette placed adjacent to the clamped cell. IK1 was defined as the total current minus the Ba^2+-insensitive current. ^16 Subtraction of the two currents was performed using a MatLab™ script.
# as §1, with “culture:” for “culture: Zebrafish (Danio rerio) were bred and maintained at 28′C with 14 hr exposure to light and 10 hr to dark (day/night cycle) according to IACUC-approved protocols.”, “3-4 or 5-7 weeks post-fertilization” for “21-56 days post-fertilization(dpf)”, “(calcium/magnesium free-HBSS containing trypsin, penicillin/streptomycin,” for “(HBSS without calcium/magnesium, Trypsin, PCN/Streptomycin,”, “serum” for “srum”, “μg/ml)” for “μg/ml)^11”, “28.5°” for “28°”
# INa activation and inactivation were measured by whole-cell voltage-clamp according to standard protocols (32,33). Cells were held at a membrane potential of −80 mV after which pulses between −120 and +50 mV were applied in 5 mV steps each with a duration of 250 ms. Inactivation was measured from membrane potentials between −120 mV and +50 mV at maximal activation (26,33). In view of the small size of zebrafish myocytes (cell capacitance of 6.7±2.6pF; n=47) it was not necessary to reduce extracellular [Na+] to achieve voltage control; extracellular [Na+] was reduced to 50 mM in studies of neonatal rat ventricular myocytes Access resistance of the patch electrodes was <7 MΩ. Measurements showing incomplete control of membrane potential were eliminated from analysis. […]
# [2] = test system: mutant desmoglein-2 (Dsg2) knock-in mice; test: Mouse model of AC: mutant desmoglein-2 (Dsg2) knock-in; format: in vivo; conditions: daily injections for 13 weeks
# Experimental: 2 different mouse models of AC were studied: a transgenic line with cardiac myocyte-specific expression of 2057del2 plakoglobin (Plk) and a mutant desmoglein-2 (Dsg2) knock-in model. ECG telemetry and echocardiographic analyses were performed in mutant and wildtype mice treated with daily injections of SB216763 or vehicle for 6 (2057del2 Plk) or 13 (Dsg2) weeks. Hearts excised at selected time points were analyzed for histology, apoptosis and distribution of key intercalated disk proteins.
# [3] = test system: neonatal rat ventricular myocytes expressing 2057del2 plakoglobin; test: Cytokine expression in conditioned culture media; format: cell-based; conditions: transfected cells
# Experimental: Cytokine expression: Conditioned culture media (after 24 or 48 hr) from control cells and cells expressing 2057del2-plakoglobin in the presence or absence of SB216763 (5 μM, 24 hr) were collected, mixed with a cocktail of biotinylated detection antibodies and incubated with nitro-cellulose membranes spotted in duplicate with control and capture antibodies (R&D Systems). Chemiluminescent signal produced at each spot corresponded to the amount of cytokine bound. Conditioned media from control, un-transfected cultures were assayed for cytokine expression for control purposes.
# Cytokine expression: Conditioned culture media (after 24 or 48 hr) from cells expressing 2057del2 plakoglobin in the presence or absence of SB216763 (5 μM, 24 hr) were collected, mixed with a cocktail of biotinylated detection antibodies and incubated with nitro-cellulose membranes spotted in duplicate with control and capture antibodies (R&D Systems). Chemiluminescent signal produced at each spot corresponded to the amount of cytokine bound. Conditioned media from non-transfected cultures were assayed for cytokine expression as controls.
# [4] = 3-4 weeks post-fertilization, 2057del2 plakoglobin + SB2
# [5] = 3-4 weeks post-fertilization, Control + SB2
structure (smiles),measurement,setting,value
Cn1cc(C2=C(c3ccc(Cl)cc3Cl)C(=O)NC2=O)c2ccccc21 [SB216763],IK1: current density at −100 mV,[1]; [4],−15 pA/pF
same,IK1: slope between −90 and −15 mV,[1]; [4],−21 pA/pF*100 mV
same,INa: peak current density,[1]; [4],−163 pA/pF
same,IK1: current density at −100 mV,[1]; [5],−18 pA/pF
same,IK1: slope between −90 and −15 mV,[1]; [5],−27 pA/pF*100 mV
same,INa: peak current density,[1]; [5],−230 pA/pF
same,INa: peak current density,"[1]; 7-8 weeks post-fertilization, 2057del2 plakoglobin + SB2",−172 pA/pF
same,INa: peak current density,"[1]; 7-8 weeks post-fertilization, Control + SB2",−168 pA/pF
same,Effect on INa and IK1 current densities in cells expressing 2057del2 plakoglobin,[1]; early exposure of embryos,marked normalization of these currents; also recorded: almost completely normalized these currents
same,Effect on INa or IK1 current densities in control myocytes,[1]; early exposure of embryos,had no effect
same,"Effect on reduced INa and IK1 current densities, short-term exposure of isolated cells",[1]; isolated myocytes from transgenic fish treated in culture for 36 hr,reversed reductions in INa and IK1 current densities
same,Effect on reduced INa and IK1 current densities (summary statements),[1],rapidly normalized
same,Effect on reduced INa and IK1 current densities (summary statements),[1]; listed as SB2168763,"rapid, near total recovery"
same,QRS duration,[2],17.1 ± 2.7 ms
same,"Redistribution of junctional signals for Plk, Cx43 and SAP97, and myocardial apoptosis",[2],normalized
same,Ejection fraction (EF),[2]; echocardiography,73.9±6.9%
same,Fractional shortening (FS),[2]; echocardiography,50.2±6.6%
same,"Cytokine levels in culture medium, 48 hr exposure","[3]; 5 μM, 48 hr",clear reduction in cytokine levels; also recorded: restored the cytokine profile to control levels
same,"Cytokine profile in culture medium, 24 hr exposure",[3]; 24 hr,no apparent effect on cytokines; also recorded: had no apparent effect on the cytokine profile
